Test results as given in patent US20100184783A1, “COMBINATION FOR USE IN THE TREATMENT OF INFLAMMATORY ATHEROSCLEROSIS COMPRISING A MAST CELL INHIBITOR AND A PPAR GAMMA AGONIST” (priority 2007, published 2010).

Tested on: human macrophage cell-line MonoMac-6 (MM6)
Assay: Inhibition of macrophage proliferation (MM6 cell proliferation, WST-1 reagent)
Format: cell-based
Conditions: 46 hours, mean, n=5
Experimental: Cells from the human macrophage cell-line MonoMac-6 (MM6) (Ziegler-Heitbrock et al, Int. J. Cancer, 41, 456 (1988)) were cultured (37° C./5% CO2) in RPMI-1640 medium supplemented with 1 mM sodium pyruvate, 1×nonessential amino acids, 10 μg/mL insulin, 1 mM oxalacetic acid, 100 units/mL penicillin, 100 μg/mL streptomycin and 10% (v/v) fetal bovine serum. At the start of the experiment, MM6 cells were seeded in 96-well plates at a density of 1>10^5 cells/mL (100 μL per well). Proliferation of the MM6 cells was measured using the Cell Proliferation Reagent WST-1 (Roche Diagnostics Scandinavia AB, Bromma, Sweden) or by cell counting using a microscope. The WST-1 reagent is designed to be used for spectrophotometric quantification of e.g. cell growth in proliferation assays and was used according to the manufacturers' instructions. The wavelength for measuring absorbance was 450 nm. Stock solutions of pemirolast (potassium salt; purchased from American Custom Chemicals Corporation, San Diego, USA) were made in sterile saline. Pioglitazone (HCl salt; purchased from AK Scientific, Inc., Mountain View, Calif., USA) was dissolved in DMSO and then diluted in sterile saline leading to final DMSO concentrations in the MM6 incubations of 0.003%, 0.01% and 0.03% for the final pioglitazone concentrations of 0.1 μM, 0.3 μM and 1 μM, respectively. The effects of treatment with pioglitazone (alone and in combination) on MM6 proliferation were compared with control treatments containing DMSO at concentrations corresponding to the DMSO concentrations used in the different respective pioglitazone treatments. Untreated MM6 cells increased from 1×10^5 cells/mL at the start of the experiment to 1.4×10^5±0.06×10^5 cells/mL and 2.3×10^5±0.10×10^5 cells/mL after 24 and 48 hours, respectively (mean values±sem, n=4 for each of the three time-points). Pemirolast and/or pioglitazone were added at the start of the experiments and 46 hours later the effects of the drugs on MM6 cell proliferation were studied using the WST-1 reagent described above. The WST-1 reagent was added at 44 hours after start of the experiments and the average absorbance of untreated control cells exposed to the WST-1 reagent was 0.89 (n=5).

SMILES | MM6 proliferation, of the proliferation of untreated control cells (10 μM pemirolast) [%] | MM6 proliferation, of the proliferation of untreated control cells (30 μM pemirolast) [%] | MM6 proliferation, of the proliferation of untreated control cells (100 μM pemirolast) [%] | MM6 proliferation, of the proliferation of untreated control cells (0.1 μM pioglitazone, control with DMSO) [%] | MM6 proliferation, of the proliferation of untreated control cells (0.3 μM pioglitazone, control with DMSO) [%] | MM6 proliferation, of the proliferation of untreated control cells (1 μM pioglitazone, control with DMSO) [%]
Cc1cccn2c(=O)c(-c3nnn[nH]3)cnc12 [pemirolast] | 101 | 124 | 102 |  |  | 
CCc1ccc(CCOc2ccc(CC3SC(=O)NC3=O)cc2)nc1 (stereo not drawn) [pioglitazone] |  |  |  | 91 | 96 | 88
